Tested on: HIV NL4-3 wt
Assay: MT4 antiviral assay, NL4-3 strain wild type
Assay type: cell-based, HIV-1
Details: Human immunodeficiency virus 1, NL43; MT4 cells; read-out: EC50 NL4-3 wt

| SMILES | EC50 |
| --- | --- |
| CC(C)C1=C2[C@H]3CC[C@@H]4[C@@]5(C)CC[C@H](OC(=O)CC(C)(C)C(=O)O)C(C)(C)[C@@H]5CC[C@@]4(C)[C@]3(C)CC[C@@]2([C@H](O)CNCc2ccc(Cl)cc2)CC1=O [Example 15, 4-(((3aR,5aR,5bR,7aR,9S,11aR,11bR,13aS)-3a-((S)-2-((4-Chlorobenzyl)amino)-1-hydroxyethyl)-1-isopropyl-5a,5b,8,8,11a-pentamethyl-2-oxo-3,3a,4,5,5a,5b,6,7,7a,8,9,10,11,11a,11b,12,13,13a-octadecahydro-2H-cyclopenta[a]chrysen-9-yl)oxy)-2,2-dimethyl-4-oxobutanoic acid] | 6.9 nM |
| CC(=O)O[C@@H](CNCc1ccc(Cl)cc1)[C@@]12CC[C@]3(C)[C@H](CC[C@@H]4[C@@]5(C)CC[C@H](OC(=O)CC(C)(C)C(=O)O)C(C)(C)[C@@H]5CC[C@]43C)C1=C(C(C)C)C(=O)C2 [Example 16, 4-(((3aR,5aR,5bR,7aR,9S,11aR,11bR,13aS)-3a-((R)-1-Acetoxy-2-((4-chlorobenzyl)amino)ethyl)-1-isopropyl-5a,5b,8,8,11a-pentamethyl-2-oxo-3,3a,4,5,5a,5b,6,7,7a,8,9,10,11,11a,11b,12,13,13a-octadecahydro-2H-cyclopenta[a]chrysen-9-yl)oxy)-2,2-dimethyl-4-oxobutanoic acid] | 11 nM |
| CC(=O)O[C@H](CNCc1ccc(Cl)cc1)[C@@]12CC[C@]3(C)[C@H](CC[C@@H]4[C@@]5(C)CC[C@H](OC(=O)CC(C)(C)C(=O)O)C(C)(C)[C@@H]5CC[C@]43C)C1=C(C(C)C)C(=O)C2 [Example 17, 4-(((3aR,5aR,5bR,7aR,9S,11aR,11bR,13aS)-3a-((S)-1-Acetoxy-2-((4-chlorobenzyl)amino)ethyl)-1-isopropyl-5a,5b,8,8,11a-pentamethyl-2-oxo-3,3a,4,5,5a,5b,6,7,7a,8,9,10,11,11a,11b,12,13,13a-octadecahydro-2H-cyclopenta[a]chrysen-9-yl)oxy)-2,2-dimethyl-4-oxobutanoic acid] | 8.7 nM |
| CC(=O)O[C@H](CN(CCN(C)C)Cc1ccc(Cl)cc1)[C@@]12CC[C@]3(C)[C@H](CC[C@@H]4[C@@]5(C)CC[C@H](OC(=O)CC(C)(C)C(=O)O)C(C)(C)[C@@H]5CC[C@]43C)C1=C(C(C)C)C(=O)C2 [Example 20, 4-(((3aR,5aR,5bR,7aR,9S,11aR,11bR,13aS)-3a-((S)-1-Acetoxy-2-((4-chlorobenzyl)(2-(dimethylamino)ethyl)amino)ethyl)-1-isopropyl-5a,5b,8,8,11a-pentamethyl-2-oxo-3,3a,4,5,5a,5b,6,7,7a,8,9,10,11,11a,11b,12,13,13a-octadecahydro-2H-cyclopenta[a]chrysen-9-yl)oxy)-2,2-dimethyl-4-oxobutanoic acid] | 2.3 nM |
| CC(=O)O[C@@H](CN(CCN(C)C)Cc1ccc(Cl)cc1)[C@@]12CC[C@]3(C)[C@H](CC[C@@H]4[C@@]5(C)CC[C@H](OC(=O)CC(C)(C)C(=O)O)C(C)(C)[C@@H]5CC[C@]43C)C1=C(C(C)C)C(=O)C2 [Example 21, 4-(((3aR,5aR,5bR,7aR,9S,11aR,11bR,13aS)-3a-((R)-1-Acetoxy-2-((4-chlorobenzyl)(2-(dimethylamino)ethyl)amino)ethyl)-1-isopropyl-5a,5b,8,8,11a-pentamethyl-2-oxo-3,3a,4,5,5a,5b,6,7,7a,8,9,10,11,11a,11b,12,13,13a-octadecahydro-2H-cyclopenta[a]chrysen-9-yl)oxy)-2,2-dimethyl-4-oxobutanoic acid] | 76.5 nM |
| CC(C)C1=C2[C@H]3CC[C@@H]4[C@@]5(C)CC[C@H](OC(=O)CC(C)(C)CC(=O)O)C(C)(C)[C@@H]5CC[C@@]4(C)[C@]3(C)CC[C@@]2([C@@H](O)CN(CCN(C)C)Cc2ccc(Cl)cc2)CC1=O [Example 22, 5-(((3aR,5aR,5bR,7aR,9S,11aR,11bR,13aS)-3a-((R)-2-((4-Chlorobenzyl)(2-(dimethylamino)ethyl)amino)-1-hydroxyethyl)-1-isopropyl-5a,5b,8,8,11a-pentamethyl-2-oxo-3,3a,4,5,5a,5b,6,7,7a,8,9,10,11,11a,11b,12,13,13a-octadecahydro-2H-cyclopenta[a]chrysen-9-yl)oxy)-3,3-dimethyl-5-oxopentanoic acid] | 3.3 nM |

— patent US10064873B2, “Compounds and compositions for treating HIV with derivatives of Betulin” (GlaxoSmithKline LLC, priority 2011, dated 2018)
